# Test results taken from US20260070945A1, “MACROCYCLIC IMMUNOMODULATORS” (Bristol-Myers Squibb Company, priority 2022, published 2026).
# *1 amine or outer side, *2 acyl side, *3 side chain or, on linkers, in order; H or OH if unused. Where a SMILES comes first, the peptide text is derived from it. Bridges are numbered along the chain shown (N, C = ends). [ ]: non-standard residue; d: D form. The star is where a group is joined. ξ: configuration not given here. Phe(3-CF3) = N[C@@H](Cc1cccc(C(F)(F)F)c1)C(=O)O; Phe(4-COOH) = N[C@@H](Cc1ccc(C(=O)O)cc1)C(=O)O; Bip = N[C@@H](Cc1ccc(-c2ccccc2)cc1)C(=O)O; NH(CH2)14COOH = O=C(O)CCCCCCCCCCCCCCN*; Phe(3-Me) = Cc1cccc(C[C@H](N)C(=O)O)c1; γGlu = O=C(O)[C@H](CCC(=O)[*:2])N[*:1]; Val(3-OH) = CC(C)(O)[C@H](N)C(=O)O; 4Pal = N[C@@H](Cc1ccncc1)C(=O)O; Cha = N[C@@H](CC1CCCCC1)C(=O)O; Cit = NC(=O)NCCC[C@H](N)C(=O)O; Ile(3ξ) = CCC(C)[C@H](N)C(=O)O; Thr(3ξ) = CC(O)[C@H](N)C(=O)O; 12Ado = NCCCCCCCCCCCC(=O)O; Carboxymethyl = O=C(O)C*; NMeA = CN[C@@H](C)C(=O)O; Orn = NCCC[C@H](N)C(=O)O; Aun = NCCCCCCCCCCC(=O)O; Dab = NCC[C@H](N)C(=O)O; Dap = NC[C@H](N)C(=O)O; AEEA = NCCOCCOCC(=O)O; Ac3c = NC1(C(=O)O)CC1
# Molecular target: T1, PD-1/PD-L1 interaction (PE-labeled human PD-L1-Ig binding to Jurkat cell line over-expressing human PD-1) (Homo sapiens, UniProt Q15116)
# T1 construct: expressed in transfected cells; host or cells: Jurkat
# Test: Jurkat-PD-1 Cell Binding High-Content Screening Assay (CBA)
# Settings: Jurkat-hPD-1 cells, PE-labeled PD-L1-Ig 20 nM final; read-out: Jurkat HPD1 PDL1 IC50
# Method in brief: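 Jurkat cells overexpressing human PD-1 (8×10^3/well, DMEM + 10% FCS) preincubated with compound 2 h at 37 °C, then PE-labelled human PD-L1-Ig (20 nM final) for 1 h. Cells fixed in paraformaldehyde with Hoechst 33342; bound PD-L1 quantified by high-content imaging.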
# T1 sequence (Q15116 25-288): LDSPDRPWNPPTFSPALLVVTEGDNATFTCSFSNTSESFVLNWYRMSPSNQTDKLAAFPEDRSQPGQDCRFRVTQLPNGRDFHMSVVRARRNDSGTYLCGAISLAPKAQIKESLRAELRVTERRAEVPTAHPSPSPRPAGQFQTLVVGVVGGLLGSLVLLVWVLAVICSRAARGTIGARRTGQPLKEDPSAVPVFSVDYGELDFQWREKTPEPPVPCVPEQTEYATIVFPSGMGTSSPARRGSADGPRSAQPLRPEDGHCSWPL
row,IC50 [nM],SMILES
1,301,CC(C)C[C@@H]1NC(=O)[C@H](Cc2c[nH]c3ccccc23)NC(=O)[C@H](CC(=O)O)NC(=O)[C@H](Cc2ccc(OCC(=O)O)cc2)NC(=O)[C@H](Cc2ccccc2)NC(=O)CSC[C@@H](C(=O)N[C@@H](CCCN)C(=O)NCCCCCCCCCCC(=O)O)NC(=O)[C@@H](CCC(N)=O)NC(=O)[C@H](C(C)C)NC(=O)[C@H](CC(C)C)NC(=O)[C@H](CC(N)=O)NC(=O)[C@@H](CC(C)C)NC(=O)[C@H](C)N(C)C(=O)[C@H](C(C)C)NC(=O)[C@H](Cc2ccc(-c3ccccc3)cc2)NC1=O [Example 1347] ({CH2CO}-FY(Carboxymethyl)DWL[Bip]V[NMeA][dL]NLV[dQ]C[Orn][Aun]-OH; thioether N-14)
2,75.3,CC(=O)NCCCC[C@@H]1NC(=O)[C@H](Cc2ccc(-c3ccccc3)cc2)NC(=O)[C@H](C(C)C)NC(=O)[C@H](Cc2c[nH]c3ccccc23)NC(=O)[C@H](CC(=O)O)NC(=O)[C@H](Cc2ccc(OCC(=O)O)cc2)NC(=O)[C@H](C(C)O)NC(=O)CSC[C@@H](C(=O)N[C@@H](CCCN)C(=O)N[C@@H](CO)C(=O)NCCCCCCCCCCCC(=O)O)NC(=O)[C@H](C(C)O)NC(=O)[C@H](C(C)C)NC(=O)[C@H](CC2CCCCC2)NC(=O)[C@H](CCN)NC(=O)[C@@H](CC(C)C)NC(=O)[C@H](C)N(C)C1=O (stereo partly drawn) [Example 2405] ({CH2CO}-[Thr(3ξ)]Y(Carboxymethyl)DWV[Bip]K(Ac)[NMeA][dL][Dab][Cha]V[Thr(3ξ)]C[Orn]S[12Ado]-OH; thioether N-14)
3,14.3,CC(C)C[C@@H]1NC(=O)[C@H](Cc2c[nH]c3ccccc23)NC(=O)[C@H](CC(=O)O)NC(=O)[C@H](Cc2ccc(C(=O)O)cc2)NC(=O)[C@H](Cc2ccc(OCC(=O)O)cc2)NC(=O)CSC[C@@H](C(=O)N[C@@H](CCCN)C(=O)NCCOCCOCC(=O)NCCCCCCCCCCC(=O)O)NC(=O)[C@H](CCCCN)NC(=O)[C@H](C(C)C)NC(=O)[C@H](CC2CCCCC2)NC(=O)[C@H](CC(N)=O)NC(=O)[C@@H](CC(C)C)NC(=O)[C@H](C)N(C)C(=O)[C@H](C(C)C)NC(=O)[C@H](Cc2ccc(-c3ccccc3)cc2)NC1=O [Example 2145] ({CH2CO}-Y(Carboxymethyl)[Phe(4-COOH)]DWL[Bip]V[NMeA][dL]N[Cha]VKC[Orn][AEEA][Aun]-OH; thioether N-14)
4,11.6,CC(C)C[C@@H]1NC(=O)[C@H](Cc2c[nH]c3ccccc23)NC(=O)[C@H](CC(=O)O)NC(=O)[C@H](Cc2ccc(OCC(=O)O)cc2)NC(=O)[C@H](Cc2ccncc2)NC(=O)CSC[C@@H](C(=O)N[C@@H](CCCN)C(=O)NCCOCCOCC(=O)NCCCCCCCCCCC(=O)O)NC(=O)[C@H](CO)NC(=O)[C@H](C(C)C)NC(=O)[C@H](CC2CCCCC2)NC(=O)[C@H](CCN)NC(=O)[C@@H](CC(C)C)NC(=O)[C@H](C)N(C)C(=O)[C@H](C(C)C)NC(=O)[C@H](Cc2ccc(-c3ccccc3)cc2)NC1=O [Example 2142] ({CH2CO}-[4Pal]Y(Carboxymethyl)DWL[Bip]V[NMeA][dL][Dab][Cha]VSC[Orn][AEEA][Aun]-OH; thioether N-14)
5,18.9,Cc1cccc(C[C@@H]2NC(=O)[C@H](CC(=O)O)NC(=O)[C@H](Cc3ccc(OCC(=O)O)cc3)NC(=O)[C@H](C(C)O)NC(=O)CSC[C@@H](C(=O)N[C@@H](CCN)C(=O)NCCOCCOCC(=O)NCCCCCCCCCCC(=O)O)NC(=O)[C@H](CCC(N)=O)NC(=O)[C@H](C(C)C)NC(=O)[C@H](CC3CCCCC3)NC(=O)[C@H](CCN)NC(=O)[C@@H](CC(C)C)NC(=O)[C@H](C)N(C)C(=O)[C@H](Cc3ccc(OCC(=O)O)cc3)NC(=O)[C@H](Cc3ccc(-c4ccccc4)cc3)NC(=O)[C@H](Cc3ccc(C(=O)O)cc3)NC2=O)c1 (stereo partly drawn) [Example 2475] ({CH2CO}-[Thr(3ξ)]Y(Carboxymethyl)D[Phe(3-Me)][Phe(4-COOH)][Bip]Y(Carboxymethyl)[NMeA][dL][Dab][Cha]VQC[Dab][AEEA][Aun]-OH; thioether N-14)
6,8.2,CC(C)C[C@@H]1NC(=O)[C@H](Cc2c[nH]c3ccccc23)NC(=O)[C@H](CC(=O)O)NC(=O)[C@H](Cc2ccc(C(=O)O)cc2)NC(=O)[C@H](Cc2ccc(OCC(=O)O)cc2)NC(=O)CSC[C@@H](C(=O)N[C@@H](CN)C(=O)NCCOCCOCC(=O)NCCCCCCCCCCC(=O)O)NC(=O)[C@H](CCCNC(N)=O)NC(=O)[C@H](C(C)C)NC(=O)[C@H](CC2CCCCC2)NC(=O)[C@H](CCN)NC(=O)[C@@H](CC(C)C)NC(=O)[C@H](C)N(C)C(=O)[C@H](C(C)C)NC(=O)[C@H](Cc2ccc(-c3ccccc3)cc2)NC1=O [Example 2132] ({CH2CO}-Y(Carboxymethyl)[Phe(4-COOH)]DWL[Bip]V[NMeA][dL][Dab][Cha]V[Cit]C[Dap][AEEA][Aun]-OH; thioether N-14)
7,118,CC(C)C[C@@H]1NC(=O)[C@H](Cc2c[nH]c3ccccc23)NC(=O)[C@H](CC(=O)O)NC(=O)[C@H](Cc2ccc(OCC(=O)O)cc2)NC(=O)[C@H](Cc2ccccc2)NC(=O)CSC[C@@H](C(=O)N[C@@H](CCCN)C(=O)NCCCCCCCCCCC(=O)O)NC(=O)[C@H](CCC(N)=O)NC(=O)[C@H](C(C)C)NC(=O)[C@H](CC(C)C)NC(=O)[C@H](CC(N)=O)NC(=O)[C@@H](CC(C)C)NC(=O)[C@H](C)N(C)C(=O)[C@H](C(C)C)NC(=O)[C@H](Cc2ccc(-c3ccccc3)cc2)NC1=O [Example 1345] ({CH2CO}-FY(Carboxymethyl)DWL[Bip]V[NMeA][dL]NLVQC[Orn][Aun]-OH; thioether N-14)
8,54.1,Cc1cccc(C[C@@H]2NC(=O)[C@H](CC(=O)O)NC(=O)[C@H](Cc3ccc(C(=O)O)cc3)NC(=O)[C@H](Cc3ccc(OCC(=O)O)cc3)NC(=O)CSC[C@@H](C(=O)NCC(=O)N[C@@H](CCC(=O)NCCOCCOCC(=O)N[C@@H](CCC(=O)O)C(=O)NCCCCCCCCCCC(=O)O)C(=O)O)NC(=O)[C@H](CO)NC(=O)[C@H](C(C)C)NC(=O)[C@H](CC(C)C)NC(=O)[C@H](CC(N)=O)NC(=O)[C@@H](CC(C)C)NC(=O)[C@H](C)N(C)C(=O)[C@H](C(C)C)NC(=O)[C@H](Cc3ccc(-c4ccccc4)cc3)NC(=O)[C@H](CC(C)C)NC2=O)c1 [Example 1015] ({CH2CO}-Y(Carboxymethyl)[Phe(4-COOH)]D[Phe(3-Me)]L[Bip]V[NMeA][dL]NLVSCG[γGlu][AEEA]E[Aun]-OH; thioether N-14)
9,106,CCC(C)[C@@H]1NC(=O)[C@H](Cc2ccc(-c3ccccc3)cc2)NC(=O)[C@H](C(C)C)NC(=O)[C@H](Cc2c[nH]c3ccccc23)NC(=O)[C@H](CC(=O)O)NC(=O)[C@H](Cc2ccc(O)cc2)NC(=O)[C@H](Cc2ccncc2)NC(=O)CSC[C@@H](C(=O)N[C@@H](CN)C(=O)NCCOCCOCC(=O)NCCCCCCCCCCC(=O)O)NC(=O)[C@H](C(C)O)NC(=O)[C@H](C(C)C)NC(=O)[C@H](CC2CCCCC2)NC(=O)[C@H](CC(N)=O)NC(=O)[C@@H](CC(C)C)NC(=O)[C@H](C)N(C)C1=O (stereo partly drawn) [Example 2068] ({CH2CO}-[4Pal]YDWV[Bip][Ile(3ξ)][NMeA][dL]N[Cha]V[Thr(3ξ)]C[Dap][AEEA][Aun]-OH; thioether N-14)
10,4.1,CC(C)C[C@@H]1NC(=O)[C@H](Cc2c[nH]c3ccccc23)NC(=O)[C@H](CC(=O)O)NC(=O)[C@H](Cc2ccc(OCC(=O)O)cc2)NC(=O)[C@H](Cc2ccc(OCC(=O)O)cc2)NC(=O)CSC[C@@H](C(=O)NC2(C(=O)NCCOCCOCC(=O)NCCCCCCCCCCC(=O)O)CC2)NC(=O)[C@H](CCCNC(=N)N)NC(=O)[C@H](C(C)C)NC(=O)[C@H](CC2CCCCC2)NC(=O)[C@H](CCN)NC(=O)[C@@H](CC(C)C)NC(=O)[C@H](C)N(C)C(=O)[C@H](C(C)C)NC(=O)[C@H](Cc2ccc(-c3ccccc3)cc2)NC1=O [Example 1247] ({CH2CO}-Y(Carboxymethyl)Y(Carboxymethyl)DWL[Bip]V[NMeA][dL][Dab][Cha]VRC[Ac3c][AEEA][Aun]-OH; thioether N-14)

# Same assay, conditions: PE-labeled PD-L1-Ig 20 nM final, Jurkat-hPD-1 cells; read-out: Jurkat HPD1 PDL1 IC50
row,IC50 [nM],SMILES
1,2.4,CCC(C)[C@@H]1NC(=O)[C@H](Cc2ccc(-c3ccccc3)cc2)NC(=O)[C@H](C(C)C)NC(=O)[C@H](Cc2c[nH]c3ccccc23)NC(=O)[C@H](CC(=O)O)NC(=O)[C@H](Cc2ccc(C(=O)O)cc2)NC(=O)[C@H](Cc2cnc[nH]2)NC(=O)CSC[C@@H](C(=O)N[C@@H](CCN)C(=O)NCCOCCOCC(=O)NCCCCCCCCCCC(=O)O)NC(=O)[C@H](C(C)O)NC(=O)[C@H](C(C)(C)O)NC(=O)[C@H](CC2CCCCC2)NC(=O)[C@H](CCN)NC(=O)[C@@H](CC(C)C)NC(=O)[C@H](C)N(C)C1=O (stereo partly drawn) [Example 2530] ({CH2CO}-H[Phe(4-COOH)]DWV[Bip][Ile(3ξ)][NMeA][dL][Dab][Cha][Val(3-OH)][Thr(3ξ)]C[Dab][AEEA][Aun]-OH; thioether N-14)
2,168,CC(=O)NCCCC[C@@H]1NC(=O)[C@H](C(C)(C)O)NC(=O)[C@H](CC2CCCCC2)NC(=O)[C@H](CCN)NC(=O)[C@@H](CC(C)C)NC(=O)[C@H](C)N(C)C(=O)[C@H](CCC(N)=O)NC(=O)[C@H](Cc2ccc(-c3ccccc3)cc2)NC(=O)[C@H](Cc2ccc(C(=O)O)cc2)NC(=O)[C@H](Cc2cccc(C(F)(F)F)c2)NC(=O)[C@H](CC(=O)O)NC(=O)[C@H](Cc2ccc(OCC(=O)O)cc2)NC(=O)[C@H](Cc2ccc(OCC(=O)O)cc2)NC(=O)CSC[C@@H](C(=O)N[C@@H](CCN)C(=O)NCCOCCOCC(=O)NCCOCCOCC(=O)NCCCCCCCCCCCCCCC(=O)O)NC1=O [Example 2608] ({CH2CO}-Y(Carboxymethyl)Y(Carboxymethyl)D[Phe(3-CF3)][Phe(4-COOH)][Bip]Q[NMeA][dL][Dab][Cha][Val(3-OH)]K(Ac)C[Dab][AEEA][AEEA]-{NH(CH2)14COOH}; thioether N-14)
